{"source": "patent US20210346391A1", "about": "“TREATMENT OF PRURITUS WITH P2X3 MODULATORS” (Bellus Health Cough Inc., priority 2018, published 2021)", "key": {"[1]": {"tested_on": "chloroquine (CQ) induced itch behavior", "assay": "Chloroquine-induced mouse model of acute itch and its potentiation by α,β-Me-ATP", "format": "in vivo"}, "[2]": {"tested_on": "chronic itch behavior (spontaneous scratches)", "assay": "AEW (acetone-ether-water) dry skin model of chronic itch", "format": "in vivo, mouse", "settings": "Day 10"}, "[3]": {"tested_on": "chronic itch behavior (spontaneous scratches)", "assay": "MC903 atopic dermatitis model of chronic itch", "format": "in vivo, mouse", "settings": "Day 8", "description": "MC903 (calcipotriol, Tocris) was dissolved in 100% ethanol and topically applied on C57B16/J male mouse ears (4 nmol in 40 μl, 10 μl per side of ear) or nape (4 nmol in 40 μl). This regimen was administered twice daily for 7 days. Scratching behaviors were recorded 16 h after the last MC903 treatment. […] Mice were placed individually into behavior chambers and video recorded at a side angle for 60-90 minutes. A scratch was defined as a lifting of the hind limb towards the nape or head to scratch and then a replacing of the limb back to the floor, regardless of how many scratching strokes take place between lifting and lowering of the hind limb. Experimenters for injections and observers of scratching behavior were blinded to the injection compounds and groups of mice, respectively."}}, "data": [{"smiles": "CCN(CC)CCCC(C)Nc1ccnc2cc(Cl)ccc12", "note": "(stereo not shown) [CQ, chloroquine, reference compound]", "values": [{"measurement": "number of scratches (mean ± s.e.m.)", "setting": "[1]; mouse, in vivo", "result": "17.2±2.4", "unit": "scratches"}]}, {"smiles": "CNC(=O)c1cc(F)c(-c2nc3cc(C)ccn3c2C[C@H]2CN(C(=O)OC)CCO2)c(F)c1", "note": "[Compound 1]", "values": [{"measurement": "number of scratches in 15 minutes (mean ± s.e.m.)", "setting": "[1]; 20 μg CQ + 50 μM α,β-Me-ATP, 10 mg/kg i.p., vehicle 46.6±2.9, p=0.0084", "result": "28.3±4.6", "unit": "scratches"}, {"measurement": "decrease of the potentiation of CQ-induced itch by ATP", "setting": "[1]; 20 μg CQ + 50 μM α,β-Me-ATP, 10 mg/kg i.p., vs vehicle", "result": 40, "unit": "%"}, {"measurement": "scratching behavior compared to vehicle", "setting": "[1]; 20 μg CQ + 50 μM α,β-Me-ATP, 2, 10, or 50 mg/kg i.p. 30 min before, FIG. 2", "result": "decreased scratching behavior"}, {"measurement": "number of scratches in 15 minutes (mean ± s.e.m.)", "setting": "[1]; 20 μg CQ + 100 μM α,β-Me-ATP, 10 mg/kg i.p., vehicle 67±6.3, p=0.0074, FIG. 3", "result": "44.8±3.8", "unit": "scratches"}, {"measurement": "decrease of the potentiation of CQ-induced itch by higher concentrations of ATP", "setting": "[1]; 20 μg CQ + 100 μM α,β-Me-ATP, 10 mg/kg i.p., vs vehicle", "result": 33, "unit": "%"}, {"measurement": "decrease of itch induced by high dose CQ", "setting": "[1]; 200 μg CQ, 10 mg/kg i.p., vs vehicle", "result": 21, "unit": "%"}, {"measurement": "number of scratches in 30 minutes (mean ± s.e.m.)", "setting": "[1]; high dose CQ 200 μg, 10 mg/kg i.p., vehicle 280±16.1, p=0.011, FIG. 4", "result": "221.8±12.9", "unit": "scratches"}, {"measurement": "time course of spontaneous scratches in 10-min intervals", "setting": "[2]; 2, 10, 50 mg/kg i.p., FIG. 6", "result": "significant effect on spontaneous scratches at 20 min, 40 min, 50 min, and 60 min"}, {"measurement": "spontaneous scratches in 60 min compared to vehicle", "setting": "[2]; 2, 10, or 50 mg/kg i.p., statistically significant for all doses (p<0.001), FIG. 5", "result": "decreased spontaneous scratches"}, {"measurement": "time course of spontaneous scratches in 10-min intervals", "setting": "[3]; 2, 10, 50 mg/kg i.p., FIG. 8", "result": "significant effect on spontaneous scratches at 10 min, 20 min, 30 min, 40 min, 50 min, and 60 min time points"}, {"measurement": "spontaneous scratches in 60 min compared to vehicle", "setting": "[3]; 2, 10, or 50 mg/kg i.p., statistically significant for all three doses, FIG. 7", "result": "dose-dependently decreased spontaneous scratches"}]}, {"smiles": "Nc1ncnc2c1ncn2C1OC(COP(=O)(O)CP(=O)(O)OP(=O)(O)O)C(O)C1O", "note": "(stereo not drawn) [α,β-Me-ATP, α,β-methylene-adenosine 5′-triphosphate, reference compound]", "values": [{"measurement": "number of scratches (mean ± s.e.m.)", "setting": "[1]; co-injected i.d. low dose CQ (20 μg) + 10 μM α,β-Me-ATP, p=0.0013 vs CQ", "result": "28.2±2.2", "unit": "scratches"}, {"measurement": "scratching behavior compared to CQ only or CQ+10 μM α,β-Me-ATP", "setting": "[1]; co-injected i.d. low dose CQ (20 μg) + 50 μM α,β-Me-ATP, p<0.001 vs CQ, FIG. 1", "result": "further increased scratching behaviors"}, {"measurement": "number of scratches (mean ± s.e.m.)", "setting": "[1]; mice injected i.d. solely with 10 μM α,β-Me-ATP", "result": "2.4±0.9", "unit": "scratches"}, {"measurement": "number of scratches (mean ± s.e.m.)", "setting": "[1]; mice injected i.d. solely with 50 μM α,β-Me-ATP", "result": "5.6±1.8", "unit": "scratches"}]}]}
